Assay results reported in US20050043331A1, “Substituted 3-(2,5-disubstituted)pyridyl-4-aryl pyrroles for treating inflammatory diseases” (priority 2002, published 2005).
Like-named read-outs stand apart in the source and are kept apart here.

Columns and labels:
TNF-α [1] = assay: In-vitro whole cell assay for TNF-α inhibition (LPS-stimulated PBMC, ELISA); type: cell-based; settings: TNF-α by ELISA
Method: Freshly obtained venous blood was anticoagulated with heparin, diluted with an equal volume of phosphate buffered saline (“PBS”) and placed in a sterile tube or other container. Aliquots (30 mL) of this mixture were transferred to centrifuge tubes, which were underlaid with Ficoll-Hypaque (15 mL). The prepared tubes were centrifuged at 400×g, without braking, for 30 min at room temperature. Approximately ½ to ⅔ of the platelet layer above the mononuclear cell band was removed with a pipette. The majority of the mononuclear cell layer was carefully removed using a pipette and these PBMC's were diluted with PBS and spun at 600×g for 15 min. The resulting PBMC's were washed with another portion of PBS and spun at 400×g for 10 min at room temperature. The recovered pellets were diluted in low endotoxin RPMI/1% FCS culture medium, and gave a cell concentration of 0.5-2.0×10^6 PMBC/ mL. A small volume of the suspension was removed for counting on a hemocytometer and the remaining preparation was centrifuged at 200×g for 15 min at room temperature. The recovered pelleted PMBC's were resuspended in RPMI/1% FCS to a concentration of 1.67×10^6/mL.
To run the assay, the PBMC suspension (180 μL) was transferred to duplicate wells of a 96-well flat-bottom microtiter plate and incubated for 1 h at 37° C. A solution of test compound (10 μL: prepared at 20× the desired final concentration) was added to each well and the plate was incubated for 1 h at 37° C. A solution (10 μL) of LPS in RPMI/1% FCS (200 ng/mL) was added and the wells were incubated overnight at 37° C. The supernate (100 μL) was removed from each well and diluted with RPMI/1% FCS (400 μL). The samples were analyzed for TNF-α using a commercial ELISA kit (Genzyme).

TNF-α [2] = assay: In vivo rodent assay for inhibition of LPS-induced TNF-α production; set-up: species or system Mice (BALB/cJ females); settings: Mus musculus, po, 10 mg/kg oral
Method: Mice (BALB/cJ females, Jackson Laboratories) or rats (Lewis males, Charles River) were fasted for 30 min. The animals were dosed orally on a mg/kg basis at a range of times prior to being injected intraperitoneally with LPS at 1 mg/kg and returned to their cages for 1 h. Animals were anesthetized by CO2, exsanguinated by cardiac puncture and whole blood collected (0.1-0.7 mL). The blood was allowed to clot and serum was transferred to a centrifuge tube. This sample was centrifuged, and serum was collected, aliquoted and frozen at −80° C. Samples were tested by commercial ELISA's for TNF-α (Endogen for mouse TNF-α and Biosource for rat TNF-α).

[3] = 0.5 h, 0.5 h, read-out: Mouse 10 mg/kg % inhib 0.5 h
[4] = 2 h, 2 h, read-out: Mouse 10 mg/kg % inhib 2 h

SMILES | IC50 (TNF-α [1]) | inhibition in vivo at 10 mg/kg (TNF-α [2]; [3]) | inhibition in vivo at 10 mg/kg (TNF-α [2]; [4])
COC(=O)c1c(-c2ccncc2)c(-c2ccc(F)cc2)c(C#CCN2CCOCC2)n1C [Cpd 44, 4-(4-Fluorophenyl)-1-methyl-5-[3-(4-morpholinyl)-1-propynyl]-3-(4-pyridinyl)-1H-pyrrole-2-carboxylic acid methyl ester] | 788 nM | – | 47%
COC(=O)c1c(-c2ccc(F)cc2)c(-c2ccncc2)c2n1CCC2C (centres unmarked) [Cpd 47, 6-(4-Fluorophenyl)-2,3-dihydro-1-methyl-7-(4-pyridinyl)-1H-pyrrolizine-5-carboxylic acid methyl ester] | 208 nM | 67% | 52%
CCCc1c(-c2ccnc(SC)n2)c(-c2ccc(F)cc2)cn1CCCN(C)C [Cpd 48] | 148 nM | -37% | –
CCCC1=C(c2ccnc(N[C@@H](C)c3ccccc3)n2)C(c2ccc(F)cc2)=CC1CCN1CCOCC1 (some centres unmarked) [Cpd 55] | 4 nM | -35% | –
CCOC(=O)c1[nH]cc(-c2ccncc2)c1-c1cccc(C(F)(F)F)c1 [Cpd 57] | 96 nM | -8% | –
Cn1c(N2CCCC2)c(-c2ccncc2)c(-c2ccc(F)cc2)c1C(C)(C)O [Cpd 111] | 192 nM | 37.7% | –
COC(=O)c1c(-c2ccc(F)cc2)c(-c2ccncc2)c(N2CCC(N)C2)n1C (centres unmarked) [Cpd 113] | 237 nM | 25% | –
COC(=O)c1c(-c2ccc(F)cc2)c(-c2ccncc2)c(NCCN(C)C)n1C [Cpd 114] | 98 nM | -43% | –
COC(=O)c1c(-c2ccc(F)cc2)c(-c2ccncc2)c(NCCN2CCCCC2)n1C [Cpd 115] | 92 nM | -36% | –
COC(=O)c1c(-c2ccc(F)cc2)c(-c2ccncc2)c(N2CCN(C(C)=O)CC2)n1C [Cpd 116] | 1530 nM | 57% | –
COC(=O)c1c(-c2ccc(F)cc2)c(-c2ccncc2)c(-c2ccc(N(C)C)cc2)n1C [Cpd 122] | 120 nM | -22% | –
CCN1CCN(c2c(-c3ccncc3)c(-c3ccc(F)cc3)c(C(=O)OC)n2C)CC1 [Cpd 124] | 135 nM | 67.8% | –
COC(=O)c1c(-c2ccc(F)cc2)c(-c2ccncc2)c(N2CCN(C3CCCC3)CC2)n1C [Cpd 125] | 139 nM | 48.6% | –
COC(=O)c1c(-c2ccc(F)cc2)c(-c2ccncc2)c(N2CCN(CC3CC3)CC2)n1C [Cpd 128] | 269 nM | 66.3% | –
COC(=O)c1c(-c2ccc(F)cc2)c(-c2ccncc2)c(NC2CCNCC2)n1C [Cpd 131] | 315 nM | 7% | –
COC(=O)c1c(-c2ccc(F)cc2)c(-c2ccncc2)c(-c2cccc(NC(C)=O)c2)n1C [Cpd 144] | 2 nM | 59% | –
CON(C)C(=O)c1c(-c2ccc(F)cc2)c(-c2ccncc2)c(N2CCN(C(=O)OC(C)(C)C)CC2)n1C [Cpd 145] | 72 nM | 45% | –
COC(=O)c1c(-c2ccncc2)c(-c2ccc(F)cc2)c(NCCN2CCOCC2)n1C [Cpd 148] | 10000 nM | 91% | –
COC(=O)c1c(-c2ccncc2)c(-c2ccc(F)cc2)c(NCCc2ccccc2)n1C [Cpd 152] | 1020 nM | 58% | –
CCOC(=O)c1c(-c2ccc(F)cc2)c(-c2ccncc2)c(CCCOCc2ccccc2)n1C [Cpd 155] | 248 nM | 51% | –

More lines, main results first:

IC50 (TNF-α [1]) | SMILES | inhibition in vivo at 10 mg/kg (TNF-α [2]; [3]) | inhibition in vivo at 10 mg/kg (TNF-α [2]; [4])
208 nM | Fc1ccc(-c2cn3c(c2-c2ccncc2)CNCC3)cc1 [Cpd 30, 7-(4-Fluorophenyl)-1,2,3,4-tetrahydro-8-(4-pyridinyl)-pyrrolo[1,2-a]pyrazine] | 71% | –
401 nM | CCN1C(=O)c2c(-c3ccncc3)c(-c3ccc(F)cc3)cn2C1=O [Cpd 31, 2-Ethyl-6-(4-fluorophenyl)-7-(4-pyridinyl)-1H-pyrrolo[1,2-c]imidazole-1,3(2H)-dione] | 72% | –
209 nM | CCNC(=O)c1[nH]cc(-c2ccc(F)cc2)c1-c1ccncc1 [Cpd 32, N-Ethyl-4-(4-fluorophenyl)-3-(4-pyridinyl)-1H-pyrrole-2-carboxamide] | -24% | –
157 nM | Cn1cc(-c2ccncc2)c(-c2ccc(F)cc2)c1C(=O)NCC(=O)c1ccccc1 [Cpd 34, 3-(4-Fluorophenyl)-1-methyl-N-(2-oxo-2-phenylethyl)-4-(4-pyridinyl)-1H-pyrrole-2-carboxamide] | 81% | 37%
18 nM | Cn1cc(-c2ccncc2)c(-c2ccc(F)cc2)c1-c1nnco1 [Cpd 35, 4-[4-(4-Fluorophenyl)-1-methyl-5-(1,3,4-oxadiazol-2-yl)-1H-pyrrol-3-yl]pyridine] | 60% | -1%
1030 nM | Cn1cc(-c2ccncc2)c(-c2ccc(F)cc2)c1-c1ncc(-c2ccccc2)o1 [Cpd 36, 4-[4-(4-Fluorophenyl)-1-methyl-5-(5-phenyl-2-oxazolyl)-1H-pyrrol-3-yl]pyridine] | 81% | 35%
59 nM | Cn1cc(-c2ccncc2)c(-c2ccc(F)cc2)c1-c1cnco1 [Cpd 41, 4-[4-(4-Fluorophenyl)-1-methyl-5-(5-oxazolyl)-1H-pyrrol-3-yl]pyridine] | 53% | –
180 nM | COC(=O)c1c(-c2ccncc2)c(-c2ccc(F)cc2)c(Br)n1C [Cpd 43, 5-Bromo-4-(4-fluorophenyl)-1-methyl-3-(4-pyridinyl)-1H-pyrrole-2-carboxylic acid methyl ester] | -6% | –
169 nM | Cn1cc(-c2ccc(F)cc2)c(-c2ccncc2)c1CO [Cpd 112] | 65% | –
57 nM | COC(=O)c1c(-c2ccc(F)cc2)c(-c2ccncc2)c(Nc2ccccc2)n1C [Cpd 119] | -10.5% | –
194 nM | COC(=O)c1c(-c2ccc(F)cc2)c(-c2ccncc2)cn1C(C)=O [Cpd 121] | -32.1% | –
819 nM | O=C1CCn2c(Br)c(-c3ccncc3)c(-c3ccc(F)cc3)c21 [Cpd 129] | 31% | –
326 nM | COC(=O)C1CCn2cc(-c3ccncc3)c(-c3ccc(F)cc3)c2C1=O (centres unmarked) [Cpd 133] | -9% | –
150 nM | O=C1CCCn2cc(-c3ccncc3)c(-c3ccc(F)cc3)c21 [Cpd 134] | 61% | 31%
190 nM | COc1ccc(CNCc2[nH]cc(-c3ccncc3)c2-c2ccc(F)cc2)cc1 [Cpd 138] | -30% | –
23 nM | COC(=O)c1c(-c2ccc(F)cc2)c(-c2ccncc2)cn1C(=O)OC [Cpd 139] | -22% | –
55 nM | COC(=O)c1c(-c2ccncc2)c(-c2ccc(F)cc2)cn1C [Cpd 141] | -56% | –
70 nM | CCn1cc(-c2ccncc2)c(-c2ccc(F)cc2)c1CO [Cpd 143] | 48% | –
852 nM | CN(C)CCn1cc(-c2ccncc2)c(-c2ccc(F)cc2)c1CO [Cpd 147] | 20% | –
